Laboratory results as given in patent EP1082099B1, “SURFACTANT FOR USE IN EXTERNAL PREPARATIONS FOR SKIN AND EXTERNAL PREPARATION FOR SKIN CONTAINING THE SAME” (Showa Denko K K, priority 1998, dated 1999).

Assays:
[1] = Surface tension test (plate method); assay type: physicochemical; conditions: 0.1 wt% in water, 25°C
Description: The dried medium preparation and purified surfactin sodium salt were each dissolved in water in an amount of 0.1 wt% and their ability of decreasing surface tension was tested. […]

[2] = test system: three-dimensional skin model; experiment: Skin irritation test: MTT cytotoxicity on three-dimensional cultured skin model; assay type: cell-based; conditions: test substance in PBS pH 7, 1 hour exposure, 16 hours incubation, read from graph
Description: Using a three-dimensional skin model (trade name: Three-dimensional cultured skin model, manufactured by Gunze), skin irritation tests were performed. […] The test substances were adjusted with PBS (Phosphate Buffer Saline, pH 7) so that they were in various concentrations. To the thus-adjusted test substances was exposed the skin model for 1 hour. Thereafter, the test substances were washed and incubated for 16 hours in a medium attached to the above-described three-dimensional skin model. After the incubation, a solution of MTT (3-(4,5-dimethylthiazol-2-yl)-2,5-diphenyltetrazolium bromide) was added and pigments were extracted with isopropanol rendered acidic with hydrochloric acid, followed by measurement of absorbance at a wavelength of 570 nm. […] This value was called B. The MTT solution was added to PBS and extraction was performed similarly. Absorbance of the extract measured at a wavelength of 570 nm was named C. From these values was calculated cytotoxicity. Calculation was made according to the following equation. Cytotoxicity (%) = (1-(A-c)/(B-C)) x 100 [formula]
Plotting the concentration of a test substance on the axis of abscissa and cytotoxicity on the axis of ordinate, a graph was obtained, from which the concentration of a test compound at 50% cytotoxicity was read.

[3] = Turbidity test of surfactin solutions with alkaline earth metal, judged visually after storage; assay type: physicochemical; set-up: key: -: Not turbid; +: Turbid; conditions: 40°C for 7 days
Description: (§1) Samples were prepared by dissolving surfactin sodium salt in a concentration of 0 or 0.2% and calcium chloride dihydrate in a calcium concentration of 0, 10, or 20 ppm in each of solvents described below, and each solution was charged in a screw vial and sealed, which was then left to stand at 40°C for 7 days. After 7 days, the turbidity of each sample was judged visually.
(§2) Samples were prepared by dissolving 0.2% surfactin sodium salt and magnesium chloride dihydrate in a magnesium concentration of 0, 10, or 20 ppm in each of solvents described below, and each solution was charged in a screw vial and sealed, which was then left to stand at 40°C for 7 days. After 7 days, the turbidity of each sample was judged visually.
(§3) Samples were prepared by dissolving 0.2% surfactin sodium salt and calcium chloride dihydrate in a calcium concentration of 0.1, 1, or 10 ppm in the solvent described below and further disodium edetate was added in an amount of 0, 0.0001, 0.001, 0.01, 0.1, 0.2, 1, or 3%, respectively. Then, each solution was charged in a screw vial and sealed, which was then left to stand at 40°C for 7 days. After 7 days, the turbidity of each sample was judged visually. […]
(§4) Samples were prepared by dissolving 0.2% surfactin sodium salt and calcium chloride dihydrate in a calcium concentration of 0.1, 1, or 10 ppm in the solvent described below and further sodium citrate was added in an amount of 0, 0.0001, 0.001, 0.01, 0.1, 0.2, 1, or 3%, respectively. Then, each solution was charged in a screw vial and sealed, which was then left to stand at 40°C for 7 days. After 7 days, the turbidity of each sample was judged visually. […]

[4] = as above; assay type: physicochemical; set-up: key: -: Not turbid; ±: Slightly turbid; +: Turbid; conditions: 40°C for 7 days
Description: as §1, §2, §3, §4

surfactin sodium salt
Surface Tension [1]: 27.6 mN/m | Concentration of surfactant at 50% cytotoxicity [2]: 24.4% | turbidity ([3]; 0.2% surfactin sodium salt in Solvent 1 (deionized water), magnesium 0 ppm): - | turbidity ([3]; 0.2% surfactin sodium salt in Solvent 1 (deionized water), magnesium 10 ppm): + | turbidity ([3]; 0.2% surfactin sodium salt in Solvent 1 (deionized water), magnesium 20 ppm): + | turbidity ([3]; 0.2% surfactin sodium salt in Solvent 2 (7% Ethanol, 93% deionized water), magnesium 0 ppm): - | turbidity ([3]; 0.2% surfactin sodium salt in Solvent 3 (7% Ethanol, 5% glycerin, 5% 1,3-butylene glycol, 83% deionized water), magnesium 0 ppm): - | turbidity ([3]; 0.2% surfactin sodium salt, sodium citrate 0%, calcium 0.1 ppm, solvent 7% Ethanol, 5% glycerin, 5% 1,3-butylene glycol, 83% deionized water): - | turbidity ([3]; 0.2% surfactin sodium salt, sodium citrate 0%, calcium 1 ppm, solvent 7% Ethanol, 5% glycerin, 5% 1,3-butylene glycol, 83% deionized water): + | turbidity ([3]; 0.2% surfactin sodium salt, sodium citrate 0%, calcium 10 ppm, solvent 7% Ethanol, 5% glycerin, 5% 1,3-butylene glycol, 83% deionized water): + | turbidity ([3]; 0.2% surfactin sodium salt, sodium citrate 0.0001%, calcium 0.1 ppm, solvent 7% Ethanol, 5% glycerin, 5% 1,3-butylene glycol, 83% deionized water): - | turbidity ([3]; 0.2% surfactin sodium salt, sodium citrate 0.0001%, calcium 10 ppm, solvent 7% Ethanol, 5% glycerin, 5% 1,3-butylene glycol, 83% deionized water): + | turbidity ([3]; 0.2% surfactin sodium salt, sodium citrate 0.001%, calcium 0.1 ppm, solvent 7% Ethanol, 5% glycerin, 5% 1,3-butylene glycol, 83% deionized water): - | turbidity ([3]; 0.2% surfactin sodium salt, sodium citrate 0.001%, calcium 1 ppm, solvent 7% Ethanol, 5% glycerin, 5% 1,3-butylene glycol, 83% deionized water): - | turbidity ([3]; 0.2% surfactin sodium salt, sodium citrate 0.001%, calcium 10 ppm, solvent 7% Ethanol, 5% glycerin, 5% 1,3-butylene glycol, 83% deionized water): + | turbidity ([3]; 0.2% surfactin sodium salt, sodium citrate 0.01%, calcium 0.1 ppm, solvent 7% Ethanol, 5% glycerin, 5% 1,3-butylene glycol, 83% deionized water): - | turbidity ([3]; 0.2% surfactin sodium salt, sodium citrate 0.01%, calcium 1 ppm, solvent 7% Ethanol, 5% glycerin, 5% 1,3-butylene glycol, 83% deionized water): - | turbidity ([3]; 0.2% surfactin sodium salt, sodium citrate 0.01%, calcium 10 ppm, solvent 7% Ethanol, 5% glycerin, 5% 1,3-butylene glycol, 83% deionized water): - | turbidity ([3]; 0.2% surfactin sodium salt, sodium citrate 0.1%, calcium 0.1 ppm, solvent 7% Ethanol, 5% glycerin, 5% 1,3-butylene glycol, 83% deionized water): - | turbidity ([3]; 0.2% surfactin sodium salt, sodium citrate 0.1%, calcium 1 ppm, solvent 7% Ethanol, 5% glycerin, 5% 1,3-butylene glycol, 83% deionized water): - | turbidity ([3]; 0.2% surfactin sodium salt, sodium citrate 0.1%, calcium 10 ppm, solvent 7% Ethanol, 5% glycerin, 5% 1,3-butylene glycol, 83% deionized water): - | turbidity ([3]; 0.2% surfactin sodium salt, sodium citrate 0.2%, calcium 0.1 ppm, solvent 7% Ethanol, 5% glycerin, 5% 1,3-butylene glycol, 83% deionized water): - | turbidity ([3]; 0.2% surfactin sodium salt, sodium citrate 0.2%, calcium 1 ppm, solvent 7% Ethanol, 5% glycerin, 5% 1,3-butylene glycol, 83% deionized water): - | turbidity ([3]; 0.2% surfactin sodium salt, sodium citrate 0.2%, calcium 10 ppm, solvent 7% Ethanol, 5% glycerin, 5% 1,3-butylene glycol, 83% deionized water): - | turbidity ([3]; 0.2% surfactin sodium salt, sodium citrate 1%, calcium 0.1 ppm, solvent 7% Ethanol, 5% glycerin, 5% 1,3-butylene glycol, 83% deionized water): - | turbidity ([3]; 0.2% surfactin sodium salt, sodium citrate 1%, calcium 1 ppm, solvent 7% Ethanol, 5% glycerin, 5% 1,3-butylene glycol, 83% deionized water): - | turbidity ([3]; 0.2% surfactin sodium salt, sodium citrate 1%, calcium 10 ppm, solvent 7% Ethanol, 5% glycerin, 5% 1,3-butylene glycol, 83% deionized water): - | turbidity ([3]; 0.2% surfactin sodium salt, sodium citrate 3%, calcium 0.1 ppm, solvent 7% Ethanol, 5% glycerin, 5% 1,3-butylene glycol, 83% deionized water): - | turbidity ([3]; 0.2% surfactin sodium salt, sodium citrate 3%, calcium 1 ppm, solvent 7% Ethanol, 5% glycerin, 5% 1,3-butylene glycol, 83% deionized water): - | turbidity ([3]; 0.2% surfactin sodium salt, sodium citrate 3%, calcium 10 ppm, solvent 7% Ethanol, 5% glycerin, 5% 1,3-butylene glycol, 83% deionized water): - | turbidity ([3]; 0.2% surfactin sodium salt, sodium edetate 0%, calcium 0.1 ppm, solvent 7% Ethanol, 5% glycerin, 5% 1,3-butylene glycol, 83% deionized water): - | turbidity ([3]; 0.2% surfactin sodium salt, sodium edetate 0%, calcium 1 ppm, solvent 7% Ethanol, 5% glycerin, 5% 1,3-butylene glycol, 83% deionized water): + | turbidity ([3]; 0.2% surfactin sodium salt, sodium edetate 0%, calcium 10 ppm, solvent 7% Ethanol, 5% glycerin, 5% 1,3-butylene glycol, 83% deionized water): + | turbidity ([3]; 0.2% surfactin sodium salt, sodium edetate 0.0001%, calcium 0.1 ppm, solvent 7% Ethanol, 5% glycerin, 5% 1,3-butylene glycol, 83% deionized water): - | turbidity ([3]; 0.2% surfactin sodium salt, sodium edetate 0.0001%, calcium 10 ppm, solvent 7% Ethanol, 5% glycerin, 5% 1,3-butylene glycol, 83% deionized water): + | turbidity ([3]; 0.2% surfactin sodium salt, sodium edetate 0.001%, calcium 0.1 ppm, solvent 7% Ethanol, 5% glycerin, 5% 1,3-butylene glycol, 83% deionized water): - | turbidity ([3]; 0.2% surfactin sodium salt, sodium edetate 0.001%, calcium 1 ppm, solvent 7% Ethanol, 5% glycerin, 5% 1,3-butylene glycol, 83% deionized water): - | turbidity ([3]; 0.2% surfactin sodium salt, sodium edetate 0.001%, calcium 10 ppm, solvent 7% Ethanol, 5% glycerin, 5% 1,3-butylene glycol, 83% deionized water): + | turbidity ([3]; 0.2% surfactin sodium salt, sodium edetate 0.01%, calcium 0.1 ppm, solvent 7% Ethanol, 5% glycerin, 5% 1,3-butylene glycol, 83% deionized water): - | turbidity ([3]; 0.2% surfactin sodium salt, sodium edetate 0.01%, calcium 1 ppm, solvent 7% Ethanol, 5% glycerin, 5% 1,3-butylene glycol, 83% deionized water): - | turbidity ([3]; 0.2% surfactin sodium salt, sodium edetate 0.01%, calcium 10 ppm, solvent 7% Ethanol, 5% glycerin, 5% 1,3-butylene glycol, 83% deionized water): - | turbidity ([3]; 0.2% surfactin sodium salt, sodium edetate 0.1%, calcium 0.1 ppm, solvent 7% Ethanol, 5% glycerin, 5% 1,3-butylene glycol, 83% deionized water): - | turbidity ([3]; 0.2% surfactin sodium salt, sodium edetate 0.1%, calcium 1 ppm, solvent 7% Ethanol, 5% glycerin, 5% 1,3-butylene glycol, 83% deionized water): - | turbidity ([3]; 0.2% surfactin sodium salt, sodium edetate 0.1%, calcium 10 ppm, solvent 7% Ethanol, 5% glycerin, 5% 1,3-butylene glycol, 83% deionized water): - | turbidity ([3]; 0.2% surfactin sodium salt, sodium edetate 0.2%, calcium 0.1 ppm, solvent 7% Ethanol, 5% glycerin, 5% 1,3-butylene glycol, 83% deionized water): - | turbidity ([3]; 0.2% surfactin sodium salt, sodium edetate 0.2%, calcium 1 ppm, solvent 7% Ethanol, 5% glycerin, 5% 1,3-butylene glycol, 83% deionized water): - | turbidity ([3]; 0.2% surfactin sodium salt, sodium edetate 0.2%, calcium 10 ppm, solvent 7% Ethanol, 5% glycerin, 5% 1,3-butylene glycol, 83% deionized water): - | turbidity ([3]; 0.2% surfactin sodium salt, sodium edetate 1%, calcium 0.1 ppm, solvent 7% Ethanol, 5% glycerin, 5% 1,3-butylene glycol, 83% deionized water): - | turbidity ([3]; 0.2% surfactin sodium salt, sodium edetate 1%, calcium 1 ppm, solvent 7% Ethanol, 5% glycerin, 5% 1,3-butylene glycol, 83% deionized water): - | turbidity ([3]; 0.2% surfactin sodium salt, sodium edetate 1%, calcium 10 ppm, solvent 7% Ethanol, 5% glycerin, 5% 1,3-butylene glycol, 83% deionized water): - | turbidity ([3]; 0.2% surfactin sodium salt, sodium edetate 3%, calcium 0.1 ppm, solvent 7% Ethanol, 5% glycerin, 5% 1,3-butylene glycol, 83% deionized water): - | turbidity ([3]; 0.2% surfactin sodium salt, sodium edetate 3%, calcium 1 ppm, solvent 7% Ethanol, 5% glycerin, 5% 1,3-butylene glycol, 83% deionized water): - | turbidity ([3]; 0.2% surfactin sodium salt, sodium edetate 3%, calcium 10 ppm, solvent 7% Ethanol, 5% glycerin, 5% 1,3-butylene glycol, 83% deionized water): - | turbidity ([3]; Surfactin 0.2% in Solvent 1 (deionized water), calcium 0 ppm): - | turbidity ([3]; Surfactin 0.2% in Solvent 1 (deionized water), calcium 10 ppm): + | turbidity ([3]; Surfactin 0.2% in Solvent 1 (deionized water), calcium 20 ppm): + | turbidity ([3]; Surfactin 0.2% in Solvent 2 (7% Ethanol, 93% deionized water), calcium 0 ppm): - | turbidity ([3]; Surfactin 0.2% in Solvent 2 (7% Ethanol, 93% deionized water), calcium 10 ppm): + | turbidity ([3]; Surfactin 0.2% in Solvent 2 (7% Ethanol, 93% deionized water), calcium 20 ppm): + | turbidity ([3]; Surfactin 0.2% in Solvent 3 (7% Ethanol, 5% glycerin, 5% 1,3-butylene glycol, 83% deionized water), calcium 0 ppm): - | turbidity ([3]; Surfactin 0.2% in Solvent 3 (7% Ethanol, 5% glycerin, 5% 1,3-butylene glycol, 83% deionized water), calcium 10 ppm): + | turbidity ([3]; Surfactin 0.2% in Solvent 3 (7% Ethanol, 5% glycerin, 5% 1,3-butylene glycol, 83% deionized water), calcium 20 ppm): + | turbidity ([4]; 0.2% surfactin sodium salt in Solvent 2 (7% Ethanol, 93% deionized water), magnesium 10 ppm): ± | turbidity ([4]; 0.2% surfactin sodium salt in Solvent 2 (7% Ethanol, 93% deionized water), magnesium 20 ppm): ± | turbidity ([4]; 0.2% surfactin sodium salt in Solvent 3 (7% Ethanol, 5% glycerin, 5% 1,3-butylene glycol, 83% deionized water), magnesium 10 ppm): ± | turbidity ([4]; 0.2% surfactin sodium salt in Solvent 3 (7% Ethanol, 5% glycerin, 5% 1,3-butylene glycol, 83% deionized water), magnesium 20 ppm): ± | turbidity ([4]; 0.2% surfactin sodium salt, sodium citrate 0.0001%, calcium 1 ppm, solvent 7% Ethanol, 5% glycerin, 5% 1,3-butylene glycol, 83% deionized water): ± | turbidity ([4]; 0.2% surfactin sodium salt, sodium edetate 0.0001%, calcium 1 ppm, solvent 7% Ethanol, 5% glycerin, 5% 1,3-butylene glycol, 83% deionized water): ±
